# What was measured:
# [1] = test system: barnyardgrass; test: Test A barnyardgrass; assay type: in vivo, Echinochloa crus-galli; details: 0 to 10 scale where 0 is no effect and 10 is complete control
# How it was run: (§1)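 Injury scored visually after about eleven greenhouse days against untreated plants, 0 = no effect, 10 = complete control. Compounds, formulated in surfactant-containing non-phytotoxic solvent, were applied as preemergence soil drench to sandy loam plantings and as postemergence runoff spray at the 1–2 leaf stage.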
# [2] = test system: velvetleaf; test: Test A velvetleaf; assay type: in vivo, Abutilon theophrasti; details: 0 to 10 scale where 0 is no effect and 10 is complete control
# How it was run: as §1
# [3] = test system: lambsquarters; test: Test C postemergence lambsquarters; assay type: in vivo, Chenopodium album; details: 0 to 100 scale, 0 no effect, 100 complete control
# How it was run: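 Visual ratings on a 0 to 100 scale, where 0 means no effect and 100 complete control, were made versus untreated controls roughly 14 to 21 days after postemergence treatment. Test compounds were formulated in a non-phytotoxic solvent mixture containing a surfactant.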
# [4] = test system: blackgrass; test: Test E blackgrass; assay type: in vivo, Alopecurus myosuroides; details: Postemergence; for Plant response rating, Blackgrass: 0 to 100 scale; for Blackgrass plant response rating: Rate 250 g/ha, 0 to 100 scale where 0 is no effect and 100 is complete control
# How it was run: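 Compounds formulated in non-phytotoxic solvent mixture with surfactant; for postemergence, sprayed on plants at 1- to 4-leaf stage grown in 60:40 sandy loam/greenhouse potting mix. Kept in greenhouse ~21 to 28 days, then visually rated against untreated controls.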
# [5] = test system: rape; test: Test E rape; assay type: in vivo, Brassica napus; details: Postemergence; for Plant response rating, Rape: 0 to 100 scale; for Rape plant response rating: Rate 250 g/ha, 0 to 100 scale where 0 is no effect and 100 is complete control
# Protocol: […] A mixture of sandy loam soil and greenhouse potting mix in a 60:40 ratio was used for the postemergence test.
# (§2) Plantings of these crops and weed species were adjusted to produce plants of appropriate size for the postemergence test. All plant species were grown using normal greenhouse practices. Crop and weed species include annual bluegrass (Poa annua), blackgrass (Alopecurus myosuroides), black nightshade (Solanum nigra), chickweed (Stellaria media), common poppy (Papaver rhoeas), deadnettle (Lamium amplexicaule), downy brome (Bromus tectorum), field violet (Viola arvensis), galium (Galium aparine), green foxtail (Setaria viridis), Italian ryegrass (Lolium multiflorum), jointed goatgrass (Aegilops cylindrica), kochia (Kochia scoparia), lambsquarters (Chenopodium album), littleseed canarygrass (Phalaris minor), rape (Brassica napus), redroot pigweed (Amaranthus retroflexus), Russian thistle (Salsola kali), scentless chamomile (Matricaria inodora), spring barley (Hordeum vulgare), sugar beet (Beta vulgaris), sunflower (Helianthus annuus), ivyleaf speedwell (Veronica hederaefolia), spring wheat (Triticum aestivum), winter wheat (Triticum aestivum), wild buckwheat (Polygonum convolvulus), wild mustard (Sinapis arvensis), wild oat (Avena fatua), windgrass (Apera spica-venti) and winter barley (Hordeum vulgare).
# (§3) Treated plants and untreated controls were maintained in a greenhouse for approximately 21 to 28 days, after which all treated plants were compared to untreated controls and visually evaluated. […] A dash response (-) means no test result.
# [6] = test system: sugar beet; test: Test E sugar beet; assay type: in vivo, Beta vulgaris; details: Postemergence; for Plant response rating, Sugar beet: 0 to 100 scale; for Sugar beet plant response rating: Rate 250 g/ha, 0 to 100 scale where 0 is no effect and 100 is complete control
# Protocol: Compounds evaluated in this test were formulated in a non-phytotoxic solvent mixture which included a surfactant and applied to plants that were in the 1- to 4-leaf stage (postemergence application). A mixture of sandy loam soil and greenhouse potting mix in a 60:40 ratio was used for the postemergence test.
# as §2, §3
# [7] = test system: kochia; test: Test E kochia; assay type: in vivo, Kochia scoparia; details: Preemergence; for Kochia plant response rating (0 to 100 scale): Rate 250 g/ha
# [8] = test system: Abutilon theophrasti (ABUTH); test: Test F preemergence, alone and in mixture with rimsulfuron, ABUTH; assay type: in vivo; details: 21 days after treatment, 0-100 scale
# Protocol: (§4) Abutilon theophrasti (ABUTH), Chenopodium album (CHEAL), Amaranthus rudis (AMATA), Setaria faberii (SETFA), Panicum dichotomiflorum (PANDI), and Digitaria sanguinalis (DIGSA) were grown from seed in pots of an artificial potting mixture in a greenhouse. Compounds of the present invention were applied at 70 and 105 g ai/ha preemergence. Rimsulfuron was applied at 8.8 and 17.5 g ai/ha. Mixtures of the compounds of the present invention and rimsulfuron were also applied.
# (§5) Following application, the plants were maintained by watering as needed. A fertilizer solution of Peter's 20-20-20 (10 pounds/5 gallons of water) plus Sprint 330, a Iron Chelate micronutrient, (113.5 grams/5 gallons of water) was injected into the water with an Anderson fertilizer injection system to provide approximately 219 ppm of nitrogen with each watering. Artificial lighting was used to supplement natural light to produce a 14 hour photoperiod and: an additional one hour light period was used between 1:00 am to 2:00 am for a night interruption. Greenhouse temperatures were targeted for 27° C. in the day and 21° C. at night. At 21 days after treatment, all plants were evaluated for injury as compared to control plants that were sprayed only with non-phytotoxic solvent.
# (§6) Colby's equation was used to calculate the expected additive herbicidal effect of the mixtures of Compound 21 and the mixture partners listed above. […]
# [9] = test system: Amaranthus rudis (AMATA); test: Test F preemergence, alone and in mixture with rimsulfuron, AMATA; assay type: in vivo; details: 21 days after treatment, 0-100 scale
# Protocol: as §4, §5, §6
# [10] = test system: Setaria faberii (SETFA); test: Test F preemergence, alone and in mixture with rimsulfuron, SETFA; assay type: in vivo; details: 21 days after treatment, 0-100 scale
# How it was run: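 Greenhouse pot plants treated preemergence with compound at 70 and 105 g ai/ha, rimsulfuron at 8.8 and 17.5 g ai/ha, or mixtures; 27° C day/21° C night, 14 hour photoperiod. Injury scored at 21 days after treatment against solvent-sprayed controls; expected additive effect of mixtures calculated by Colby's equation.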
# [11] = test system: Panicum dichotomiflorum (PANDI); test: Test F preemergence, alone and in mixture with rimsulfuron, PANDI; assay type: in vivo; details: 21 days after treatment, 0-100 scale
# Protocol: as §4, §5, §6
# [12] = test system: Green foxtail; test: Test D green foxtail; assay type: in vivo; details: Postemergence, 0 to 100 scale, 0 no injury, 100 complete control
# [13] = Rate 125 g/ha, 0 to 100 scale (0 no effect, 100 complete control)
# [14] = Rate 125 g/ha, 0 is no effect, 100 is complete control
# [15] = Rate 500 g/ha, 0 is no effect, 100 is complete control
# [16] = Alone: Cmpd. rate 70, Rimsulfuron 0
# [17] = Alone: Cmpd. rate 105, Rimsulfuron 0
compound,measurement,setting,value
CCN(CC)C(=O)n1oc(=O)n(-c2c(C)cccc2C)c1=O [Compound 2],"Plant response rating, Barnyardgrass","[1]; Postemergence, Rate 1000 g/ha",8
same,"Plant response rating, Barnyardgrass","[1]; Pre-emergence, Rate 2000 g/ha",9
same,"Plant response rating, Velvetleaf","[2]; Postemergence, Rate 1000 g/ha",0
same,"Plant response rating, Velvetleaf","[2]; Pre-emergence, Rate 2000 g/ha",0
CC(C)N(C(=O)n1oc(=O)n(C)c1=O)c1ccc(F)cc1 [Compound 138],Plant response rating Lambsquarters,[3]; Rate 140 g/ha,0
same,Plant response rating Lambsquarters,[3]; Rate 280 g/ha,0
same,Plant response rating Lambsquarters,[3]; Rate 560 g/ha,10
same,Plant response rating Lambsquarters,[3]; Rate 1120 g/ha,20
same,"Plant response rating, Blackgrass",[4]; Rate 125 g/ha,20
same,Blackgrass plant response rating,[4],0
same,"Plant response rating, Rape",[5]; Rate 125 g/ha,10
same,Rape plant response rating,[5],0
same,"Plant response rating, Sugar beet",[6]; Rate 125 g/ha,30
same,Sugar beet plant response rating,[6],10
same,"Plant response rating, Kochia",[7]; [13],20
same,Kochia plant response rating (0 to 100 scale),[7],40
CC(C)N(C(=O)n1oc(=O)n(C2CC2)c1=O)c1ccc(F)cc1 [Compound 242],Plant response rating Lambsquarters,[3]; Rate 140 g/ha,0
same,Plant response rating Lambsquarters,[3]; Rate 280 g/ha,0
same,Plant response rating Lambsquarters,[3]; Rate 560 g/ha,0
same,Plant response rating Lambsquarters,[3]; Rate 1120 g/ha,0
same,"Plant response rating, Blackgrass",[4]; Rate 62 g/ha,60
same,"Plant response rating, Blackgrass",[4]; [14],0
same,Blackgrass plant response rating,[4],10
same,"Plant response rating, Blackgrass",[4]; [15],50
same,"Plant response rating, Rape",[5]; Rate 62 g/ha,20
same,"Plant response rating, Rape",[5]; [14],10
same,Rape plant response rating,[5],0
same,"Plant response rating, Rape",[5]; [15],50
same,"Plant response rating, Sugar beet",[6]; Rate 62 g/ha,50
same,"Plant response rating, Sugar beet",[6]; [14],50
same,Sugar beet plant response rating,[6],40
same,"Plant response rating, Sugar beet",[6]; [15],30
same,ABUTH Observed,[8]; [16],50%
same,ABUTH Observed,[8]; [17],70%
same,AMATA Observed,[9]; [16],20%
same,AMATA Observed,[9]; [17],55%
same,SETFA Observed,[10]; [16],60%
same,SETFA Observed,[10]; [17],75%
same,PANDI Observed,[11]; [16],60%
same,PANDI Observed,[11]; [17],80%
same,"Plant response rating, Kochia",[7]; [13],35
same,Kochia plant response rating (0 to 100 scale),[7],50
same,"Plant response rating, Kochia","[7]; Rate 500 g/ha, 0 to 100 scale where 0 is no effect and 100 is complete control",60
same,"Plant response rating, Green foxtail",[12]; Rate 64 g/ha,100
same,"Plant response rating, Green foxtail",[12]; Rate 125 g/ha,100
CC(C)N(C(=O)n1oc(=O)n(C2CCCCCC2)c1=O)c1ccc(F)cc1F [Compound 342],"Plant response rating, Green foxtail",[12]; Rate 64 g/ha,0
same,"Plant response rating, Green foxtail",[12]; Rate 125 g/ha,60
